# Test results reported in US20130183257A1, “COMPOSITIONS AND METHODS FOR IMPROVING SKIN APPEARANCE” (SYTHEON LTD., priority 2009, published 2013).
# Marks after values point to notes of the source that are not given here.
# Experiment: Solubility study of solid ingredients in DOI and co-solvent
# Assay type: physicochemical
# Experimental: Noting the surprising ease with which the various phases incorporating the DOI were prepared, a study was conducted to evaluate whether the DOI was acting as or solvent for or aiding in the solubility of certain of the solid ingredients with which it was combined. In this particular evaluation, the solubility of two solid sunscreen actives, butyl methoxydibenzoylmethane (avobenzone) and benzophenone-3 (“BP3”), and another solid cosmetic active, hexylresorcinol (“HR”) were evaluated in DOI. Additionally, the solubility of avobenzone was further evaluated in C12-C15 alkylbenzoate (“AB”) and in the combination of DOI and C12-C15 alkylbenzoate (70:30)—avobenzone being the sunscreen active and C12-C15 alkylbenzoate a co-solvent of the Sunscreen Formulation of Example 5C above. Each solution was prepared by warming 10 grams of the solvents to ˜45° C., adding the avobenzone and stirring the mixture for at least 20 min to make sure the all of the solid is solubilized. The solutions were then allowed to stand at room temp (˜25 C) and then visually examined for signs of crystal formation at 18 hours and 24 hours. Percent solubility was then calculated.
# [1] = room temp (~25 C), visual examination
substance,measurement,setting,value
C12-C15 alkylbenzoate [AB],Solubility of Avobenzone in the solvent,"dissolved at ~45° C., standing at room temp (~25 C)",23%*
same,"Avobenzone crystal formation, 18 hours",[1],yes
same,"Avobenzone crystal formation, 24 hours",[1],yes
